Measured values as given in patent US20220362386A1, “LIQUID COMPOSITIONS COMPRISING A LEVODOPA AMINO ACID CONJUGATE AND USES THEREOF” (NeuroDerm, Ltd., priority 2019, published 2022).
Where a name gives a salt, the structure may show the parent alone. Read-outs that look alike come from different tables or passages of the source. Blank lines part the entries; values can stand above or below the compound they belong to. Non-standard residues stand in square brackets, D forms with d. Residues, ends and D or L forms follow the SMILES beside them. Dopa = N[C@@H](Cc1ccc(O)c(O)c1)C(=O)O

Experiments:
[1] = Analytical stability of LD-Tyr/CD formulations by HPLC (Tables 42-45c); details: for Analytical stability result (HPLC), t = 1 week / Analytical stability result (HPLC), t = 2 weeks: in mg/mL (unit assumed)
Procedure: (§5) It is noted that the recovery % compared the amount of any given material as measured at t=28 h (or any other presented value) compared to the amount of that material, at measured at t=0.

[2] = 0 weeks
Procedure: as §5

[3] = Human blood stability test; format: in vitro ADME; details: slope of the percentage decrease of remaining compound; substrate 10 μM; 0-60 minutes
Procedure: The stability of several LDAA compounds in human blood was tested. The substrate concentration was 10 μM and the incubation time 0, 5, 15, 30 and 60 minutes.
The results are described in Table 19, wherein the results describe the Ke, i.e., the slope of the percentage decrease of the remaining amount of the compound, measured at each of the above time points, such that the higher the Ke the faster the metabolism.

[4] = Human liver S9 stability test; format: in vitro ADME; details: slope of the percentage decrease of remaining compound; substrate 10 μM; S9 protein 0.2 mg/mL; 0-60 minutes
Procedure: The stability of several LDAA compounds, in their TFA salt form, in human liver S9 was tested using commercially available liver S9. The substrate concentration was 10 μM, the S9 protein concentration was 0.2 mg/mL, and the incubation time 0, 5, 15, 30 and 60 minutes.
The results are described in Table 18, wherein the results describe the Ke, i.e., the slope of the percentage decrease of the remaining amount of the compound, measured at each of the above time points, such that the higher the Ke the faster the metabolism.

[5] = Stability observation of the solubility solutions at 25° C. (visual inspection for precipitants); format: physicochemical
Procedure: The volume of the solution in the bottle was adjusted to 5 ml, either by adding solvent, or be removing any residual solution, after which the bottle was tightly closed and left at 25° C. for stability observation. […] It is further noted that throughout this document, unless mentioned otherwise, the stability was measured using the manual visual inspection Bosch apparatus MIH DX, at a magnification of ×1.75.

physchem = format: physicochemical
Procedure: The volume of the solution in the bottle was adjusted to 5 ml, either by adding solvent, or be removing any residual solution, after which the bottle was tightly closed and left at 25° C. for stability observation. It is noted that throughout Example 4, the concentrations in the tables below were calculated taking into account the amount of solvent added or the solution removed, in which event, the calculations were performed regarding the 5 ml+(amount removed) as the volume of the solution. It is further noted that throughout this document, unless mentioned otherwise, the stability was measured using the manual visual inspection Bosch apparatus MIH DX, at a magnification of ×1.75.
(§1) The LD-Tyr free base, prepared according to Example 2, was added to a solvent, as detailed in Table 7 below, and neutralized by addition of NaOH. When maximum solubility was observed, the solution was filtered and then transferred to a bottle that was previously weighed and flushed with nitrogen. The volume of the solution in the bottle was adjusted to 5 ml, after which the bottle was tightly closed and left at 25° C. for stability observation.
(§2) When maximum solubility was observed, the solution was filtered and then transferred to a bottle that was previously weighed and flushed with nitrogen. The volume of the solution in the bottle was adjusted to 5 ml, after which the bottle was tightly closed and left at 25° C. for stability observation.
as §2, with “stored” for “left”
as §2, with “stored” for “left”
as §1, with “LD-Lys TFA salt,” for “The LD-Tyr free base,”, “1, and which comprises two equivalents of TFA,” for “2,”, “11” for “7”, “stored” for “left”
as §2, with “As detailed above regarding other solutions, with the LD-Tyr free base when” for “When”
as §1, with “LD-Lys HCl salt,” for “The LD-Tyr free base,”, “3,” for “2,”, “13” for “7”, “by the” for “by”

human plasma = experiment: Protein binding, solid phase extraction (SPE) method; format: in vitro ADME; details: 1.0E−05M; SPE sample preparation
Procedure: (§3) A solid phase extraction (SPE) method was used to prepare samples for several compounds in the plasma protein binding assay. The following SPE protocols were followed:
(§4) Sorbent: Waters Oasis MCX 96—well MicroElution Plate—Cat #186001830BA Sample: 200 μL of plasma spiked at 10 μM with test compound. Sample was diluted 1:1 with 4% phosphoric acid in water and mixed for 15 minutes 1) Place Oasis plate on vacuum manifold and set vacuum to 5″ Hg; 2) Condition with 200 μL methanol; 3) Equilibrate with 200 μL water; 4) Load dilute plasma sample; 5) Wash with 200 μL 2% formic acid in water; 6) Wash with 400 μL methanol; and 7) Elute with 100 μL 5% NH4OH in methanol.
as §4, with “MAX 96-well” for “MCX 96—well”, “plate—Cat #186001829” for “Plate—Cat #186001830BA”, “5% NH4OH” for “2% formic acid”, “2% formic acid” for “5% NH4OH”

[6] = as above; format: in vitro ADME, human; details: human, human plasma, 1.0E−05M, SPE sample preparation
Procedure: as §3, §4
as §4, with “MAX 96-well” for “MCX 96—well”, “plate—Cat #186001829” for “Plate—Cat #186001830BA”, “5% NH4OH” for “2% formic acid”, “2% formic acid” for “5% NH4OH”

[7] = NB 144-4 formulation, Storage temp. 2-8° C.
[8] = NB 144-4 formulation, Storage temp. 25° C.
[9] = NB 144-4 formulation, Storage temp. 40° C.
[10] = NB 144-32 (F1), 37% LD-Tyr/0.5% CD
[11] = NB 144-34 (F2), 44% LD-Tyr/0.5% CD
[12] = NB 144-39 (F3), 30% LD-Tyr/0.5% CD
[13] = 0.75% CD solution, pH 8.5, 240 mg/ml salt

Analytical stability result (HPLC), t = 0 ([1]; NB 144-4 formulation (30% LD-Tyr/0.75% CD), Storage temp. 2-8° C.): 7.37
% retention, t = 1 week [1, 7]: 99.9%
Analytical stability result (HPLC), t = 1 week [1, 7]: 7.36
% retention, t = 2 weeks [1, 7]: 99.1%
Analytical stability result (HPLC), t = 2 weeks [1, 7]: 7.30
% retention, t = 1 week [1, 8]: 99.3%
Analytical stability result (HPLC), t = 1 week [1, 8]: 7.32
% retention, t = 2 weeks [1, 8]: 100.5%
Analytical stability result (HPLC), t = 2 weeks [1, 8]: 7.41
Analytical stability result (HPLC), t = 0 [1, 9]: 7.37
% retention, t = 1 week [1, 9]: 98.5%
Analytical stability result (HPLC), t = 1 week [1, 9]: 7.26
Concentration (HPLC), t = 0 [1, 10]: 4.78
Concentration (HPLC), t = 28 h at 32° C. [1, 10]: 4.77
Concentration (HPLC), t = 0 [1, 11]: 4.84
Concentration (HPLC), t = 28 h at 32° C. [1, 11]: 4.78
Concentration (HPLC), t = 0 [1, 12]: 4.86
Concentration (HPLC), t = 28 h at 32° C. [1, 12]: 4.74
Analytical stability result (HPLC), t = 0 [2]: 7.37
SMILES: C[C@@](Cc1ccc(O)c(O)c1)(NN)C(=O)O [CD]

Ke [3]: 0.0149
Ke [4]: −0.0008
SMILES: NC(=O)[C@@H](N)Cc1ccc(O)c(O)c1 [LDA (levodopa amide), levodopa amide, reference compound]

SMILES: NCCCC[C@H](NC(=O)[C@@H](N)Cc1ccc(O)c(O)c1)C(=O)O [LD-Lys HCl salt] (H-[Dopa]-Lys-OH)
Stability [5, 13]: Precipitated* (precipitated within 12 hours at room temperature)
Stability ([5]; WFI, pH 6.51, 350 mg/ml salt): Stable (physically stable for at least 12 hours)
Appearance (physchem; 0.75% CD solution, pH 6.46, 240 mg/ml salt): Clear
Appearance (physchem; [13]): Clear
solubility thermodynamic (physchem; 25 °C, aqueous buffer, thermodynamic from solid, solvent WFI, pH 6.51, HCl counter-ion, read-out: LD-Lys TFA salt concentration): 350 mg/mL
Appearance (physchem; WFI, pH 6.51, 350 mg/ml salt): Clear
LD-Lys free base Concentration (physchem; solvent 0.75% CD solution, pH 6.46): 200 mg/mL
LD-Lys TFA salt concentration (physchem; solvent 0.75% CD solution, pH 6.46, HCl counter-ion): 240 mg/mL
LD-Lys free base Concentration (physchem; solvent 0.75% CD solution, pH 8.5): 200 mg/mL
LD-Lys TFA salt concentration (physchem; solvent 0.75% CD solution, pH 8.5, HCl counter-ion): 240 mg/mL
LD-Lys free base Concentration (physchem; solvent WFI, pH 6.51): 290 mg/mL

% Protein Bound 1st (human plasma): 36.6%
% Protein Bound 2nd (human plasma): 49.4%
% Protein Bound Mean (human plasma): 43%
recovery at 10 μM ([6]; read-out: % Recovery 1st): 110%
recovery at 10 μM ([6]; read-out: % Recovery 2nd): 115%
recovery at 10 μM ([6]; read-out: % Recovery Mean): 112%
SMILES: N[C@@H](Cc1ccc(O)c(O)c1)C(=O)N[C@@H](CCC(=O)O)C(=O)O [LD-Glu TFA salt, Levodopa Glutamic Acid TFA Salt] (H-[Dopa]-Glu-OH)
